Test results published in ChEMBL document CHEMBL4265868, “N-alkanol-N-cyclohexanol amine aryl esters: Multidrug resistance (MDR) reversing agents with high potency and efficacy” (Eur J Med Chem, 2017).
Calls of active or inactive are those of the source. The calls are words filed in the database; no cut-off is given here.

Legend:
[1] = tested on: K562; assay: Effect on rhodamine-123 efflux in human K562 cells at 1 uM incubated for 10 mins hrs by flow cytometry; format: ADME, cell-based; conditions: k562, 10 min
[2] = Toxicity in human K562/Dox cells assessed as reduction in cell viability at 0.1 to 3 uM incubated for 72 hrs by MTT assay; format: cell-based
[3] = species: Homo sapiens; assay: Inhibition of P-gp in human K562/DOX cells assessed as potentiation of doxorubicin-induced cytotoxicity by measuring reduction in doxorubicin IC50 at 1 uM incubated for 72 hrs by MTT assay relative to control; format: cell-based
[4] = species: Homo sapiens; assay: Inhibition of P-gp in human K562/DOX cells assessed as potentiation of doxorubicin-induced cytotoxicity by measuring reduction in doxorubicin IC50 at 3 uM incubated for 72 hrs by MTT assay relative to control; format: cell-based
[5] = species: Homo sapiens
Description: Inhibition of P-gp in human K562/DOX cells assessed as drug level causing 50% increase in nuclear pirarubicin concentration incubated for 30 mins by spectroflurometry

[6] = Half life in human plasma by LC-MS/MS method; format: ADME, cell-free
[7] = Stability in PBS buffer assessed as drug degradation incubated for 30 to 120 mins by LC-MS/MS method; format: physicochemical; conditions: read-out: Drug degradation
[8] = Stability in presence of bovine serum and human K562/DOX cells assessed as drug degradation incubated for 30 to 120 mins by LC-MS/MS method; format: ADME; conditions: K562/DOX cells with bovine serum, read-out: Drug degradation
[9] = tested on: K562; assay: Potentiation of doxorubicin-induced cytotoxicity in human K562 cells assessed as reduction in cell viability at 0.1 to 3 uM incubated for 72 hrs by MTT assay; format: cell-based; conditions: k562, 72 h
[10] = tested on: K562; assay: Inhibition of P-gp in human K562/DOX cells assessed as increase in rhodamine-123 […] in human K562 cells at 1 uM incubated for 10 mins hrs by flow cytometry relative to untreated control; format: cell-based
[11] = species: Homo sapiens; assay: Inhibition of P-gp in human K562/DOX cells assessed as potentiation of doxorubicin-induced cytotoxicity by measuring reduction in doxorubicin IC50 at 0.1 uM incubated for 72 hrs by MTT assay relative to control; format: cell-based
[12] = tested on: K562; assay: Toxicity in human K562 cells assessed as reduction in cell viability at 0.1 to 3 uM incubated for 72 hrs by MTT assay; format: cell-based; conditions: k562, 72 h
[13] = Stability in human plasma assessed as parent compound remaining incubated for 120 mins by LC-MS/MS method; format: ADME, cell-free; conditions: read-out: Stability

Compound | half-life [6] [h] | degraded [7] [%] | metabolised [8] [%] | remaining at 2 h [13] [%] | Activity [1] | Activity [2] | Ratio IC50 [3] | Ratio IC50 [4] | I0.5 [5] [µM] | Activity [9] | fold change (FC) [10] | Ratio IC50 [11] | Activity [12] | inhibition [10]
COc1cc(/C=C/C(=O)O[C@H]2CC[C@H](N(C)CCCCCOC(=O)c3cc(OC)c(OC)c(OC)c3)CC2)cc(OC)c1OC | ≥ 4 | < 5 | < 5 |  | Non-Toxic | Non-Toxic | 32.8 | 57.9 | 0.13 | Non-Toxic | 80 | 2.3 | Non-Toxic | 
COc1cc(/C=C/C(=O)OCCCCCN(C)[C@H]2CC[C@H](OC(=O)c3cc(OC)c(OC)c(OC)c3)CC2)cc(OC)c1OC | ≥ 4 | < 5 | < 5 |  |  |  |  |  | 0.1 |  |  |  |  | 
COc1cc(/C=C/C(=O)OCCCCN(C)[C@H]2CC[C@@H](OC(=O)c3cc(OC)c(OC)c(OC)c3)CC2)cc(OC)c1OC | ≥ 4 | < 5 | < 5 |  |  |  |  |  | 0.35 |  |  |  |  | 
COc1cc(/C=C/C(=O)O[C@H]2CC[C@@H](N(C)CCCOC(=O)c3cc(OC)c(OC)c(OC)c3)CC2)cc(OC)c1OC | ≥ 4 | < 5 | < 5 |  |  |  |  |  | 0.47 |  |  |  |  | 
COc1cc(/C=C/C(=O)O[C@H]2CC[C@@H](N(C)CCCCCOC(=O)c3cc(OC)c(OC)c(OC)c3)CC2)cc(OC)c1OC | ≥ 4 | < 5 | < 5 |  | Non-Toxic | Non-Toxic | 5.5 | 14.7 | 0.09 | Non-Toxic | 10 to 80 | 1.6 | Non-Toxic | 
COc1cc2c(cc1OC)CN(CCc1ccc(NC(=O)c3cc(OC)c(OC)cc3NC(=O)c3cnc4ccccc4c3)cc1)CC2 |  |  |  |  |  |  | 29.7 |  |  |  |  |  |  | Active
COc1cc(/C=C/C(=O)OCCCN(C)[C@H]2CC[C@@H](OC(=O)c3cc(OC)c(OC)c(OC)c3)CC2)cc(OC)c1OC | 2 to 4 | < 5 | < 5 | 75 |  |  |  |  | 0.25 |  |  |  |  | 
COc1cc(/C=C/C(=O)OCCCCN(C)[C@H]2CC[C@H](OC(=O)c3cc(OC)c(OC)c(OC)c3)CC2)cc(OC)c1OC | 2 to 4 | < 5 | < 5 | 50 |  |  |  |  | 0.08 |  |  |  |  | 

Second part, led by results:

half-life [6] [h] | degraded [7] [%] | metabolised [8] [%] | remaining at 2 h [13] [%] | Compound | Activity [1] | Activity [2] | Ratio IC50 [3] | Ratio IC50 [4] | I0.5 [5] [µM] | Activity [9] | fold change (FC) [10] | Ratio IC50 [11] | Activity [12] | inhibition [10]
< 2 |  |  |  | CCOC(=O)C(C)c1cccc(C(=O)c2ccccc2)c1 (stereo not given) |  |  |  |  |  |  |  |  |  | 
≤ 2 | < 5 | < 5 |  | COc1cc(/C=C/C(=O)OCCCN(C)[C@H]2CC[C@H](OC(=O)c3cc(OC)c(OC)c(OC)c3)CC2)cc(OC)c1OC |  |  |  |  | 0.08 |  |  |  |  | 
≥ 4 | < 5 | < 5 |  | COc1cc(/C=C/C(=O)OCCCCCN(C)[C@H]2CC[C@@H](OC(=O)c3cc(OC)c(OC)c(OC)c3)CC2)cc(OC)c1OC |  |  |  |  | 0.51 |  |  |  |  | 
≤ 2 | < 5 | < 5 |  | COc1cc(/C=C/C(=O)O[C@H]2CC[C@H](N(C)CCCCOC(=O)c3cc(OC)c(OC)c(OC)c3)CC2)cc(OC)c1OC | Non-Toxic | Non-Toxic | 12.9 | 50 | 0.06 | Non-Toxic | 60 | 3.3 | Non-Toxic | 
≤ 1 | < 5 | < 5 |  | COc1cc(/C=C/C(=O)O[C@H]2CC[C@H](N(C)CCCOC(=O)c3cc(OC)c(OC)c(OC)c3)CC2)cc(OC)c1OC |  |  |  |  | 0.07 |  |  |  |  | 
≥ 4 | < 5 | < 5 |  | COc1cc(/C=C/C(=O)O[C@H]2CC[C@@H](N(C)CCCCOC(=O)c3cc(OC)c(OC)c(OC)c3)CC2)cc(OC)c1OC | Non-Toxic | Non-Toxic | 4.6 | 34.9 | 0.29 | Non-Toxic | 10 to 80 | 2.8 | Non-Toxic | 
